Data published in publication PMC5540273, “Progress towards a public chemogenomic set for protein kinases and a call for contributions” (PLoS ONE, 2017).

What was measured:
Assay in all cases: KINOMEscan competition binding
FAK = FAK (Homo sapiens, UniProt Q05397); settings: read-out: %Inh FAK
EPHA5 = EPHA5 (Homo sapiens, UniProt P54756); settings: read-out: %Inh EPHA5
CLK2 = CLK2 (Homo sapiens, UniProt P49760); settings: read-out: %Inh CLK2
CAMK1G = CAMK1G (Homo sapiens, UniProt Q96NX5); settings: read-out: %Inh CAMK1G
CDK4 = CDK4 (Homo sapiens, UniProt P11802); settings: read-out: %Inh CDK4
DMPK = biological target: T1, DMPK (Homo sapiens, UniProt Q09013); settings: read-out: %Inh DMPK
T1 sequence (Q09013 1-629): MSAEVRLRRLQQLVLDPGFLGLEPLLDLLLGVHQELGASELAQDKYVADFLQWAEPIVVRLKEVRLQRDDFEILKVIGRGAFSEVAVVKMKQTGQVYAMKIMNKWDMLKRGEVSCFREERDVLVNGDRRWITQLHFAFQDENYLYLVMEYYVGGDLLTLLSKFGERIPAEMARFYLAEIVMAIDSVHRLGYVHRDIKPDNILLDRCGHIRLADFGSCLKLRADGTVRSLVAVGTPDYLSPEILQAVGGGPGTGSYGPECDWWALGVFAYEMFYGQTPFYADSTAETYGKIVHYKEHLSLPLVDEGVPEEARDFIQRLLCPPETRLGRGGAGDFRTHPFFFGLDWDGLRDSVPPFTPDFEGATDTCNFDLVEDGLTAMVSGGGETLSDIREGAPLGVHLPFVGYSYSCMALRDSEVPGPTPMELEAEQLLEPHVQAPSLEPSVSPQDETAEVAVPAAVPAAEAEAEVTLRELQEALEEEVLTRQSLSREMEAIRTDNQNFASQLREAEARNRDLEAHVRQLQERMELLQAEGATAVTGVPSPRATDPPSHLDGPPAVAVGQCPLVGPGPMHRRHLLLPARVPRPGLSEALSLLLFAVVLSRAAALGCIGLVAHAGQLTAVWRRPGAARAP

CDK7 = CDK7 (Homo sapiens, UniProt P50613); settings: read-out: %Inh CDK7
Sequence of CDK7 (P50613 whole entry): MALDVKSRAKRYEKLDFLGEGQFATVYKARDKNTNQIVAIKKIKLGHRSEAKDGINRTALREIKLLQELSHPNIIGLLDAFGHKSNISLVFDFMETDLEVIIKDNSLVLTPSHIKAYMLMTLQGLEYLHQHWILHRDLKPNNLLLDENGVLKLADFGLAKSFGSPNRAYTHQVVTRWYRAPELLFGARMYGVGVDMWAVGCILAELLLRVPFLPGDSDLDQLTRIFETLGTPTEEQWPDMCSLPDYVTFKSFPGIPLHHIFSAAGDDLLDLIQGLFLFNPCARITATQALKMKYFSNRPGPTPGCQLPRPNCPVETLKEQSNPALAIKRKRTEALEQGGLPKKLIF

DAPK1 = DAPK1 (Homo sapiens, UniProt P53355); settings: read-out: %Inh DAPK1
Sequence of DAPK1 (P53355 whole entry): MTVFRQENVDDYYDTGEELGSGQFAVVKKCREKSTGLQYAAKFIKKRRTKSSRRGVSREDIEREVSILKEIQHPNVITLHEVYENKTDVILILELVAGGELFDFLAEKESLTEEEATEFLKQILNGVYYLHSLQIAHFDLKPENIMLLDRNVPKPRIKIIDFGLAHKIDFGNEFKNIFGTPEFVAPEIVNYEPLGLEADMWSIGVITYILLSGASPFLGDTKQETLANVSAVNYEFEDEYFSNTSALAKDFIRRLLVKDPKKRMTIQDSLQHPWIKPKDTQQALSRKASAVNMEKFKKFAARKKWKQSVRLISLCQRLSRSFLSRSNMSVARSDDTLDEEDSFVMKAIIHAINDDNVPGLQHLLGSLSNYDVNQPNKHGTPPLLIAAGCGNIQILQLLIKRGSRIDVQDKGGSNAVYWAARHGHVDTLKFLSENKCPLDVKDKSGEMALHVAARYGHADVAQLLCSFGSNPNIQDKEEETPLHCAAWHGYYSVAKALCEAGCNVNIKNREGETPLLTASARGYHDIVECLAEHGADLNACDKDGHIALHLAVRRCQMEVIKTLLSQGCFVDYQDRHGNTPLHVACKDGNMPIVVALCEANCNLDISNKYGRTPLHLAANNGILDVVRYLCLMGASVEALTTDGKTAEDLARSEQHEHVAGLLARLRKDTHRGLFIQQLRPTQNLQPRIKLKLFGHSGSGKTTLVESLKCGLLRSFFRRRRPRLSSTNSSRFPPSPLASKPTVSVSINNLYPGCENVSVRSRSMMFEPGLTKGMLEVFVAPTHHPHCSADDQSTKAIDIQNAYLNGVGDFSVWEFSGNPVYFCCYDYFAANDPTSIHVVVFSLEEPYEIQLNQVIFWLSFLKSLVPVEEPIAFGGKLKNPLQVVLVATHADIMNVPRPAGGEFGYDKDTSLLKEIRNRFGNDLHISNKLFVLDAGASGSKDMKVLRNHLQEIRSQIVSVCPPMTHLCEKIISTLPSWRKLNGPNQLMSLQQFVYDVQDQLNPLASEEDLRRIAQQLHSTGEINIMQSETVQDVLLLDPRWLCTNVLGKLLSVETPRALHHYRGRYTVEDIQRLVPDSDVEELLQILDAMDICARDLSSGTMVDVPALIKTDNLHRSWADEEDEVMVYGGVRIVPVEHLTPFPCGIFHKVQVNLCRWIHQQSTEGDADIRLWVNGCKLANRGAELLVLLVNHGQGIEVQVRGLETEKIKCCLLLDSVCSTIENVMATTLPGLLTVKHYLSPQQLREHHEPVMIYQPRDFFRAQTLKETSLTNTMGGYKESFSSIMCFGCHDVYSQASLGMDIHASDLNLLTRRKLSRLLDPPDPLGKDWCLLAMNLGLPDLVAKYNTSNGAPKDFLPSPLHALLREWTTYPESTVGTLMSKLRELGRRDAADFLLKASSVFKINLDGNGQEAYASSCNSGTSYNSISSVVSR

FYN = FYN (Homo sapiens, UniProt P06241); settings: read-out: %Inh FYN
Sequence of FYN (P06241 whole entry): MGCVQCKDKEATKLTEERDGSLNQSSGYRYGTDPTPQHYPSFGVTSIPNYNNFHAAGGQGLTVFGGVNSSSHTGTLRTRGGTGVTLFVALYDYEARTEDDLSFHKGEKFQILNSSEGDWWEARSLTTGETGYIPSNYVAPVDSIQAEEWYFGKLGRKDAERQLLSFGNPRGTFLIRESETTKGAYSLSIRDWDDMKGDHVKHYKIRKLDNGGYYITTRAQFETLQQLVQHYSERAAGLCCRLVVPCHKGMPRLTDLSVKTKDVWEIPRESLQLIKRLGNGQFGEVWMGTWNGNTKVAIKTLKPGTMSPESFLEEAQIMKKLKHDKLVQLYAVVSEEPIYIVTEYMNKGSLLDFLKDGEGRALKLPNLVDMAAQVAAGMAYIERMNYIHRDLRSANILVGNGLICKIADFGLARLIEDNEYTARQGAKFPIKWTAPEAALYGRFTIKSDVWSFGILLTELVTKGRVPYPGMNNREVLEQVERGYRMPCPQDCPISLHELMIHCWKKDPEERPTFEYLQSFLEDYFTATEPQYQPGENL

IKK-epsilon = biological target: T2, IKK-epsilon (Homo sapiens, UniProt Q14164); settings: read-out: %Inh IKK-epsilon
T2 sequence (Q14164 1-716): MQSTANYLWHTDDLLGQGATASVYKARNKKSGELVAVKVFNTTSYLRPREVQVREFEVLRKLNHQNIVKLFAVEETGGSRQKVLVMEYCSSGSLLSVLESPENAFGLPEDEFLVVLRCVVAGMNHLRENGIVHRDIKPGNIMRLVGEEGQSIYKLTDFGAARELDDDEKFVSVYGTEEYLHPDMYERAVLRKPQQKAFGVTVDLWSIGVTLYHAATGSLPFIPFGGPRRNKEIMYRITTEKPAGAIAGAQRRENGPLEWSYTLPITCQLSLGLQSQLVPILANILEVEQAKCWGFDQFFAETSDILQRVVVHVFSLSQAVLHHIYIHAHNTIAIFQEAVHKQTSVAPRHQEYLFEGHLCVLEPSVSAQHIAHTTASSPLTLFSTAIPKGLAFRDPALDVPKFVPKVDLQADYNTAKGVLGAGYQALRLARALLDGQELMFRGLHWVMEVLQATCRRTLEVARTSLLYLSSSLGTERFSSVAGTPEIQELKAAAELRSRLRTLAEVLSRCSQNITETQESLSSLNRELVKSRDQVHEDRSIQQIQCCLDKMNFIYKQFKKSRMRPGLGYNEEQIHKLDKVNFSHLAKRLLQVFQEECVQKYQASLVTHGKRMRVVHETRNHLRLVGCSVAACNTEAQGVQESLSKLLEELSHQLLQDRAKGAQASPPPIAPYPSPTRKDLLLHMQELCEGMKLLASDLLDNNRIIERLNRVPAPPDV

CSNK1A1 = CSNK1A1 (Homo sapiens, UniProt P48729); settings: read-out: %Inh CSNK1A1
ICK = biological target: T3, ICK (Homo sapiens, UniProt Q9UPZ9); settings: read-out: %Inh ICK
T3 sequence (Q9UPZ9 1-632): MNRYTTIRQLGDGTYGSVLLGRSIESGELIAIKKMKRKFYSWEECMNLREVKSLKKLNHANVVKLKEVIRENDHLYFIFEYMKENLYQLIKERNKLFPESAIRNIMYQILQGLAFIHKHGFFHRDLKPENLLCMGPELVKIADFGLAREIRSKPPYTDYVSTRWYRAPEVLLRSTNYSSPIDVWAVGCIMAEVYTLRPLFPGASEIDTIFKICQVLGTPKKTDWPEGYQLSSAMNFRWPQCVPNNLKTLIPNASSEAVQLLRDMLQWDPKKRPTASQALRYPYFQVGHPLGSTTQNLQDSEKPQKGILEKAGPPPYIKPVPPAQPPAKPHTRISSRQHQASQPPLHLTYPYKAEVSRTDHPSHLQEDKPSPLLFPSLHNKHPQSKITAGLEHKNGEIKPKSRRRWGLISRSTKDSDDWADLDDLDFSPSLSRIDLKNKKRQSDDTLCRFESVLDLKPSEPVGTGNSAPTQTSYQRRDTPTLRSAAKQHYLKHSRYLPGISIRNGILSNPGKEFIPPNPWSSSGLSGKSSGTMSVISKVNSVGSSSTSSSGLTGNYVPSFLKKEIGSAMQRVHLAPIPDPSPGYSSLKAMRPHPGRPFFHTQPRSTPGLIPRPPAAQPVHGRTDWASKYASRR

CDK4-cyclinD3 = CDK4-cyclinD3 (Homo sapiens, UniProt P11802); settings: read-out: %Inh CDK4-cyclinD3

Sequence of EPHA5 (P54756 25-1037): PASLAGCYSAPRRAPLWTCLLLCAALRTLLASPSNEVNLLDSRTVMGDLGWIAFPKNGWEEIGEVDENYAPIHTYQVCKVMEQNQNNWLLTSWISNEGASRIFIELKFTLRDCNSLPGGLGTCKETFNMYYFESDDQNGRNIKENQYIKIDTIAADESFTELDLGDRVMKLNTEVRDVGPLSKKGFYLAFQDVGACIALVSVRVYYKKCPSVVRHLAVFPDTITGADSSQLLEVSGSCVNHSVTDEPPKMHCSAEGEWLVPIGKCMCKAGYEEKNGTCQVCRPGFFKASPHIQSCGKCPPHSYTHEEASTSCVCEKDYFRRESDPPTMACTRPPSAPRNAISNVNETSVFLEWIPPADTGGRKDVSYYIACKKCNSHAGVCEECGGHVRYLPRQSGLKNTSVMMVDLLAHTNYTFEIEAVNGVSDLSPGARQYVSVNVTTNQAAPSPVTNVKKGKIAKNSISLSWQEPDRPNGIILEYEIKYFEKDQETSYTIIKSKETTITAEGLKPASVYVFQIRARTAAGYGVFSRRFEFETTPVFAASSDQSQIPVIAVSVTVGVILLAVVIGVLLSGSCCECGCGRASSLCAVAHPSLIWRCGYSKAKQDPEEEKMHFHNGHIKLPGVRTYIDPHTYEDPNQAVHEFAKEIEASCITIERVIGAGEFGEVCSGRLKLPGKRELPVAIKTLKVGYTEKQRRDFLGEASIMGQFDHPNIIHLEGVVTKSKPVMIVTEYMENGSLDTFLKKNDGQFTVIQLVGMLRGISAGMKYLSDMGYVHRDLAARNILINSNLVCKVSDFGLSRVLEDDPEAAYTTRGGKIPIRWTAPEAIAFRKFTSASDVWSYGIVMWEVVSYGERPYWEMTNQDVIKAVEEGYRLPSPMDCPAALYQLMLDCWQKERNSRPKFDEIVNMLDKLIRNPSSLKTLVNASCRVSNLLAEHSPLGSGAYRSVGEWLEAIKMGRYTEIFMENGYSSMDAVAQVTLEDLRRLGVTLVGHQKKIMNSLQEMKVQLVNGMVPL
Sequence of CLK2 (P49760 whole entry): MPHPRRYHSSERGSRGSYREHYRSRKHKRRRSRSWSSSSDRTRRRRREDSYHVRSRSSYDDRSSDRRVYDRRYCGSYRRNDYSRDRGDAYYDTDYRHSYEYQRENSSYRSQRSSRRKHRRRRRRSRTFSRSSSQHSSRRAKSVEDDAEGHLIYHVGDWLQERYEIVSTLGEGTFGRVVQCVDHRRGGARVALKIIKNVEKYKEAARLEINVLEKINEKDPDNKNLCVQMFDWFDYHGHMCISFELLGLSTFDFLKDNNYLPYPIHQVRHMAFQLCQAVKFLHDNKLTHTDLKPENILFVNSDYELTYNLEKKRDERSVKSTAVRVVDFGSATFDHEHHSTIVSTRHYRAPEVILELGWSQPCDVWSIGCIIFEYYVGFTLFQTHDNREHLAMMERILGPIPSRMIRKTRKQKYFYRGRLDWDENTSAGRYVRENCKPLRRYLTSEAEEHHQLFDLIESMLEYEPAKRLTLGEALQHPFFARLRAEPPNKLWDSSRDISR
Sequence of FAK (Q05397 whole entry): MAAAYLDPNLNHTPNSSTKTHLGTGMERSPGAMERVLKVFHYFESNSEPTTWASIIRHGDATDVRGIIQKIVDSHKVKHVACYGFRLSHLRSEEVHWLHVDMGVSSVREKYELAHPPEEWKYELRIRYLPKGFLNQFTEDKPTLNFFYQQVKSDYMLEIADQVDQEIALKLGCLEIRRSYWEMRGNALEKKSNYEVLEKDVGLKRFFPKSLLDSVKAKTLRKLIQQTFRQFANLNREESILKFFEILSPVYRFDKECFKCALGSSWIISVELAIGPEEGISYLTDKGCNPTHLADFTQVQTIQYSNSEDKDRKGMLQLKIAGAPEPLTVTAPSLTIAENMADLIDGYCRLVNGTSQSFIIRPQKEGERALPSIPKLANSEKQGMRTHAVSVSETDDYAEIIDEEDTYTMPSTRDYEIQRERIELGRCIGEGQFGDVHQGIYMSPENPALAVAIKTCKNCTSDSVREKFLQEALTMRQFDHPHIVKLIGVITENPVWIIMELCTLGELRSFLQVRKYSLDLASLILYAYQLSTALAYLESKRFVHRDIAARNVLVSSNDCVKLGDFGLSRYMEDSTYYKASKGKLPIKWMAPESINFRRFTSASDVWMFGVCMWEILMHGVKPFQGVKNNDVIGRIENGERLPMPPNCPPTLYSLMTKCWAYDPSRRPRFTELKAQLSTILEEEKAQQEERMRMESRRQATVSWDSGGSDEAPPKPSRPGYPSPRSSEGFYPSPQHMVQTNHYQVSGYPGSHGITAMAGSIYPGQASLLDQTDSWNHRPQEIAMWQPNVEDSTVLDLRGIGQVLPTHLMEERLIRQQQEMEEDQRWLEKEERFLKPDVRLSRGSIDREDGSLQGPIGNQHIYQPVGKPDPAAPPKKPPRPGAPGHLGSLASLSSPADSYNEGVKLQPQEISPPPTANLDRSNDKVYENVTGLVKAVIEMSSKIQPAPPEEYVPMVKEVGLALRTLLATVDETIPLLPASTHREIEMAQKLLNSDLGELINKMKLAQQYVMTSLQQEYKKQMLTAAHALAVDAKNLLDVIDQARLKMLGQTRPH

Structure (SMILES)	inhibition at 1 µM (FAK) [%]	inhibition at 1 µM (EPHA5) [%]	inhibition at 1 µM (CLK2) [%]	inhibition at 1 µM (CAMK1G) [%]	inhibition at 1 µM (CDK4) [%]	inhibition at 1 µM (DMPK) [%]	inhibition at 1 µM (CDK7) [%]	inhibition at 1 µM (DAPK1) [%]	inhibition at 1 µM (FYN) [%]	inhibition at 1 µM (IKK-epsilon) [%]	inhibition at 1 µM (CSNK1A1) [%]	inhibition at 1 µM (ICK) [%]	inhibition at 1 µM (CDK4-cyclinD3) [%]
CS(=O)(=O)Cc1ccc(Nc2nccc(-c3c(-c4cccc(NC(=O)C5CCCCC5)c4)nn4ncccc34)n2)cc1 [UNC10225159A]	0	0	10	0	18	0	6	0	1	32	7	14	18
Cn1cc(-c2cnc(N)c3c(-c4ccc5c(c4)CCN5C(=O)Cc4ccccc4)csc23)cn1 [UNC10225012A]	7	0	19	0	0	0	19	38	25	59	21	100	0
O=c1cc(N2CCOCC2)nc2n(Cc3cccc(Cl)c3Cl)c(C3CC3)nn12 [UNC10225469A]	0	6	25	5	0	0	5	26	6	0	0	4	0
COc1cccc(OC)c1C(=O)Nc1cccc(-c2nn3ccccc3c2-c2ccnc(Nc3cccc(F)c3)n2)c1 [UNC10225310A]	1	11	21	0	0	2	22	10	22	4	25	0	7
Cc1ccc(NC(=O)Nc2cccc(C(F)(F)F)c2)cc1 [UNC10225187A]	1	0	36	10	0	0	12	18	0	0	0	0	0
